Reference: patent publication US20110144160A1, “Antagonists of Prostaglandin D2 Receptors” (Amira Pharmaceuticals, Inc., priority 2008, published 2011)
pIC50: −log10 of the molar value.

The molecules below were run against T1, human DP2 receptor (Homo sapiens, UniProt Q9Y5Y4) (assay: DP2/CRTH2 binding assay ([3H]PGD2 radioligand)). Settings: membranes of HEK293 cells expressing recombinant human DP2, 1 nM [3H]PGD2; read-out: hDP2.
T1 construct: expressed in transfected cells
T1 sequence (Q9Y5Y4 1-395): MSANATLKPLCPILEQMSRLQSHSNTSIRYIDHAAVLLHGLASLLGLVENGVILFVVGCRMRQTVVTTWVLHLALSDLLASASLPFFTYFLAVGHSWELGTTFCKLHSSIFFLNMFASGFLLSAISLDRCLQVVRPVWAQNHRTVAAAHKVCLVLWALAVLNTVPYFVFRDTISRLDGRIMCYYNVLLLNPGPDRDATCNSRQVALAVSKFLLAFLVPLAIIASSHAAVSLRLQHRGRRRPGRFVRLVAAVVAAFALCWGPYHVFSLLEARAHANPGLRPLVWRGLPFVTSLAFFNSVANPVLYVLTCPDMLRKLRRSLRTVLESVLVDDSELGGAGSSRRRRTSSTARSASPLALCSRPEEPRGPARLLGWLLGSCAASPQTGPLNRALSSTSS
Experimental: The ability of a compound to bind to the human DP2 receptor is assessed via a radioligand binding assay using [^3H]PGD2. HEK293 cells stably expressing recombinant human DP2 are resuspended in 10 mM Hepes, 7.4 containing 1 mM DTT, lysed and centrifuged at 75,000×g to pellet the membranes. The membranes are resuspended in 10 mM Hepes, 7.4 containing 1 mM DTT and 10% glycerol to approximately 5 mg protein/ml. Membranes (2-10 μg protein/well) are incubated in 96-well plates with 1 nM [^3H]PGD2 and test compound in Assay Buffer (50 mM Hepes, 10 mM MnCl2, 1 mM EDTA, plus or minus 0.2% human serum albumin, pH 7.4) for 60 minutes at room temperature. The reactions are terminated by rapid filtration through Whatman GF/C glass fibre filter plates. The filter plates were pre-soaked in 0.33% polythylenimine for 30 minutes at room temperature then washed in Wash Buffer (50 mM Hepes, 0.5 M NaCl pH 7.4) prior to harvesting. After harvesting, the filter plates are washed 3 times with 1 ml cold Wash Buffer then dried. Scintillant is then added to the plates and the radioactivity retained on the filters is determined on a Packard TopCount (Perkin Elmer). Specific binding is determined as total radioactive binding minus non-specific binding in the presence of 10 μM PGD2. IC50s were determined using GraphPad prism analysis of drug titration curves.

Question: With COc1ccc(CC(=O)O)cc1Oc1ccc(NC(=O)C(C)(C)C)cc1CSc1ccc(Cl)cc1 [Compound 5, {3-[2-(4-chloro-phenylsulfanylmethyl)-4-(2,2-dimethyl-propionylamino)-phenoxy]-4-methoxy-phenyl}-acetic acid] as the molecule, how does the pIC50 read?
Answer: > 6.52

Question: How did the pIC50 turn out when COc1ccc(CC(=O)O)cc1Oc1ccc(NC(=O)CC(C)(C)C)cc1CSCC(F)(F)F [Compound 16, {3-[4-(3,3-Dimethyl-butyrylamino)-2-(2,2,2-trifluoro-ethylsulfanylmethyl)-phenoxy]-4-methoxy-phenyl}-acetic acid] was run?
Answer: > 6.52

Question: With COc1ccc(CC(=O)O)cc1Oc1ccc(C(=O)NCC(=O)c2ccccc2)cc1CSC(C)(C)C [Compound 40, {3-[2-tert-butylsulfanylmethyl-4-(2-oxo-2-phenyl-ethylcarbamoyl)-phenoxy]-4-methoxy-phenyl}-acetic acid] as the molecule, how does the pIC50 read?
Answer: > 6.52

Question: CC(C)(C)C(=O)Nc1ccc(Oc2cc(CC(=O)O)ccc2Cl)c(CSCC(F)(F)F)c1 [Compound 53, {4-Chloro-3-[4-(2,2-dimethyl-propionylamino)-2-(2,2,2-trifluoro-ethylsulfanylmethyl)-phenoxy]-phenyl}-acetic acid] was tested. Which pIC50 did it give?
Answer: > 6.52

Question: How did the pIC50 turn out when COc1ccc(CC(=O)O)cc1Oc1ccc(NC(=O)NCc2ccccc2)cc1CSc1ccc(Cl)cc1 [Compound 6, {3-[4-(3-benzyl-ureido)-2-(4-chloro-phenylsulfanylmethyl)-phenoxy]-4-methoxy-phenyl}-acetic acid] was run?
Answer: > 6.52

Question: With Cc1ccc(CC(=O)O)cc1Oc1ccc(NC(=O)C(C)(C)C)cc1CSCC(F)(F)F [Compound 51, {3-[4-(2,2-Dimethyl-propionylamino)-2-(2,2,2-trifluoro-ethylsulfanylmethyl)-phenoxy]-4-methyl-phenyl}-acetic acid] as the molecule, how does the pIC50 read?
Answer: > 6.52

Question: With COc1ccc(CC(=O)O)cc1Oc1ccc(C(=O)N2CCCCC2)cc1CSC(C)(C)C [Compound 42, {3-[2-tert-butylsulfanylmethyl-4-(piperidine-1-carbonyl)-phenoxy]-4-methoxy-phenyl}-acetic acid] as the molecule, how does the pIC50 read?
Answer: < 6.00

Question: With CC(C)(C)C(=O)Nc1ccc(Oc2cc(CC(=O)O)ccc2OC(F)F)c(CSCC(F)(F)F)c1 [Compound 49, {4-Difluoromethoxy-3-[4-(2,2-dimethyl-propionylamino)-2-(2,2,2-trifluoro-ethylsulfanylmethyl)-phenoxy]-phenyl}-acetic acid] as the molecule, how does the pIC50 read?
Answer: > 6.52

Question: With COc1ccc(CC(=O)O)cc1Oc1ccc(N(C)C(=O)C(C)(C)C)cc1CSCC(F)(F)F [Compound 34, {3-[4-[(2,2-Dimethyl-propionyl)-methyl-amino]-2-(2,2,2-trifluoro-ethylsulfanylmethyl)-phenoxy]-4-methoxy-phenyl}-acetic acid] as the molecule, how does the pIC50 read?
Answer: > 6.52

Question: How did the pIC50 turn out when COc1ccc(CC(=O)O)cc1Oc1ccc(NS(=O)(=O)c2cccc3c(N(C)C)cccc23)cc1CSC(C)(C)C [Compound 72, {3-[2-tert-butylsulfanylmethyl-4-(5-dimethylamino-naphthalene-1-sulfonylamino)-phenoxy]-4-methoxy-phenyl}-acetic acid] was run?
Answer: 6.00 to 6.52

Question: With CC(C)(C)SCc1cc(NC(=O)C(C)(C)C)ccc1Oc1cc(Cl)cc(CC(=O)O)c1 [Compound 47, {3-[2-tert-Butylsulfanylmethyl-4-(2,2-dimethyl-propionylamino)-phenoxy]-5-chloro-phenyl}-acetic acid] as the molecule, how does the pIC50 read?
Answer: > 6.52

Question: With COc1ccc(CC(=O)O)cc1Oc1ccc(C(=O)NCC(C)(C)C)cc1CSC(C)(C)C [Compound 46, {3-[2-tert-butylsulfanylmethyl-4-(2,2-dimethyl-propylcarbamoyl)-phenoxy]-4-methoxy-phenyl}-acetic acid] as the molecule, how does the pIC50 read?
Answer: 6.00 to 6.52

Question: How did the pIC50 turn out when CC(C)SCc1cc(NC(=O)C(C)(C)C)ccc1Oc1cc(CC(=O)O)cc(C(F)(F)F)c1 [Compound 54, {3-[4-(2,2-Dimethyl-propionylamino)-2-isopropylsulfanylmethyl-phenoxy]-5-trifluoromethyl-phenyl}-acetic acid] was run?
Answer: > 6.52

Question: How did the pIC50 turn out when CC(C)(C)C(=O)Nc1ccc(Oc2cc(CC(=O)O)ccc2OC(F)F)c(CS(=O)(=O)CC(F)(F)F)c1 [Compound 50, {4-Difluoromethoxy-3-[4-(2,2-dimethyl-propionylamino)-2-(trifluoro-ethanesulfonylmethyl)-phenoxy]-phenyl}-acetic acid] was run?
Answer: > 6.52

Question: With CCNC(=O)c1ccc(Oc2cc(CC(=O)O)ccc2OC)c(CSC(C)C)c1 [Compound 25, [3-(4-Ethylcarbamoyl-2-isopropylsulfanylmethyl-phenoxy)-4-methoxy-phenyl]-acetic acid] as the molecule, how does the pIC50 read?
Answer: > 6.52

Question: COc1ccc(CC(=O)O)cc1Oc1ccc(NC(=O)C(C)(C)C)cc1CSC(C)C [Compound 9, {3-[4-(2,2-Dimethyl-propionylamino)-2-isopropylsulfanylmethyl-phenoxy]-4-methoxy-phenyl}-acetic acid] was tested. Which pIC50 did it give?
Answer: > 6.52

Question: CC(C)SCc1cc(NC(=O)C(C)(C)C)ccc1Oc1cc(CC(=O)O)ccc1Cl [Compound 52, {4-Chloro-3-[4-(2,2-dimethyl-propionylamino)-2-isopropylsulfanylmethyl-phenoxy]-phenyl}-acetic acid] was tested. Which pIC50 did it give?
Answer: > 6.52

Question: COc1ccc(CC(=O)O)cc1Oc1ccc(C(=O)NCC(F)(F)F)cc1CSC(C)(C)C [Compound 44, {3-[2-tert-butylsulfanylmethyl-4-(2,2,2-trifluoro-ethylcarbamoyl)-phenoxy]-4-methoxy-phenyl}-acetic acid] was tested. Which pIC50 did it give?
Answer: > 6.52

Question: COc1ccc(CC(=O)O)cc1Oc1ccc(N2CCOC2=O)cc1CSCC(F)(F)F [Compound 38, {4-Methoxy-3-[4-(2-oxo-oxazolidin-3-yl)-2-(2,2,2-trifluoro-ethylsulfanylmethyl)-phenoxy}-phenyl]-acetic acid] was tested. Which pIC50 did it give?
Answer: 6.00 to 6.52

Question: With CC(C)(C)C(=O)Nc1ccc(Oc2cc(Cl)cc(CC(=O)O)c2)c(CS(=O)(=O)CC(F)(F)F)c1 [Compound 29, {3-Chloro-5-[4-(2,2-dimethyl-propionylamino)-2-(trifluoro-ethanesulfonylmethyl)-phenoxy]-phenyl}-acetic acid] as the molecule, how does the pIC50 read?
Answer: > 6.52

Question: How did the pIC50 turn out when COc1ccc(CC(=O)O)cc1Oc1ccc(C(=O)NC(C)(C)Cc2ccc(F)cc2)cc1CSC(C)(C)C [Compound 41, (3-{2-tert-butylsulfanylmethyl-4-[2-(4-fluoro-phenyl)-1,1-dimethyl-ethylcarbamoyl]-phenoxy}-4-methoxy-phenyl)-acetic acid] was run?
Answer: > 6.52

Question: With COc1ccc(CC(=O)O)cc1Oc1ccc(NC(=O)C(C)C)cc1CSCC(F)(F)F [Compound 15, {3-[4-isobutyrylamino-2-(2,2,2-trifluoro-ethylsulfanylmethyl)-phenoxy]-4-methoxy-phenyl}-acetic acid] as the molecule, how does the pIC50 read?
Answer: > 6.52

Question: With COc1ccc(CC(=O)O)cc1Oc1ccc(C(=O)NC(C)(C)C)cc1CSC(C)(C)C [Compound 39, [3-(4-tert-Butylcarbamoyl-2-tert-butylsulfanylmethyl-phenoxy)-4-methoxy-phenyl]-acetic acid] as the molecule, how does the pIC50 read?
Answer: > 6.52

Question: With COc1ccc(CC(=O)O)cc1Oc1ccc(NC(=O)CC(C)(C)C)cc1CSC(C)(C)C [Compound 37, {3-[2-tert-Butylsulfanylmethyl-4-(3,3-dimethyl-butyrylamino)-phenoxy]-4-methoxy-phenyl}-acetic acid] as the molecule, how does the pIC50 read?
Answer: > 6.52

Question: COc1ccc(NC(=O)c2ccc(Oc3cc(CC(=O)O)ccc3OC)c(CSC(C)(C)C)c2)cn1 [Compound 43, {3-[2-tert-butylsulfanylmethyl-4-(6-methoxy-pyridin-3-ylcarbamoyl)-phenoxy]-4-methoxy-phenyl}-acetic acid] was tested. Which pIC50 did it give?
Answer: > 6.52

Question: With COc1ccc(CC(=O)O)cc1Oc1ccc(NC(=O)C2CC2)cc1CSC(C)(C)C [Compound 35, {3-[2-tert-butylsulfanylmethyl-4-(cyclopropanecarbonyl-amino)-phenoxy]-4-methoxy-phenyl}-acetic acid] as the molecule, how does the pIC50 read?
Answer: > 6.52

Question: With COc1ccc(CC(=O)O)cc1Oc1ccc(NC(=O)C(C)(C)C)cc1CS(=O)(=O)C(C)C [Compound 10, {3-[4-(2,2-Dimethyl-propionylamino)-2-(propane-2-sulfonylmethyl)-phenoxy]-4-methoxy-phenyl}-acetic acid] as the molecule, how does the pIC50 read?
Answer: > 6.52

Question: With COc1ccc(CC(=O)O)cc1Oc1ccc(C(=O)NCCc2ccc(F)cc2)cc1CSC(C)C [Compound 27, (3-{4-[2-(4-Fluoro-phenyl)-ethylcarbamoyl]-2-isopropylsulfanylmethyl-phenoxy}-4-methoxy-phenyl)-acetic acid] as the molecule, how does the pIC50 read?
Answer: > 6.52

Question: With CCc1ccc(CC(=O)O)cc1Oc1ccc(NC(=O)C(C)(C)C)cc1CSCC(F)(F)F [Compound 56, {3-[4-(2,2-Dimethyl-propionylamino)-2-(2,2,2-trifluoro-ethylsulfanylmethyl)-phenoxy]-4-ethyl-phenyl}-acetic acid] as the molecule, how does the pIC50 read?
Answer: > 6.52
